For one assay, the target named is Integrin alpha-V/beta-3 (Homo sapiens, UniProt P05106+P06756). The experiment in a line: Inhibition of Kistrin binding to integrin alphaV-beta3. The class given is protein-complex assay.
Assay [1] addresses Integrin alpha-IIb/beta-3 (Homo sapiens, UniProt P05106+P08514). Put plainly: Inhibition of fibrinogen binding to integrin alphaIIb-beta3. The class given is protein-complex assay.

Results on 14 compounds are retold here after ChEMBL document CHEMBL1132762, “RGD mimetics containing a central hydantoin scaffold: alpkha(v)beta3 vs alpha(IIb)beta3 selectivity requirements” (Bioorg Med Chem Lett, 2000).

Integrin alpha-IIb/beta-3, sequence (P05106 27-788 limits assumed): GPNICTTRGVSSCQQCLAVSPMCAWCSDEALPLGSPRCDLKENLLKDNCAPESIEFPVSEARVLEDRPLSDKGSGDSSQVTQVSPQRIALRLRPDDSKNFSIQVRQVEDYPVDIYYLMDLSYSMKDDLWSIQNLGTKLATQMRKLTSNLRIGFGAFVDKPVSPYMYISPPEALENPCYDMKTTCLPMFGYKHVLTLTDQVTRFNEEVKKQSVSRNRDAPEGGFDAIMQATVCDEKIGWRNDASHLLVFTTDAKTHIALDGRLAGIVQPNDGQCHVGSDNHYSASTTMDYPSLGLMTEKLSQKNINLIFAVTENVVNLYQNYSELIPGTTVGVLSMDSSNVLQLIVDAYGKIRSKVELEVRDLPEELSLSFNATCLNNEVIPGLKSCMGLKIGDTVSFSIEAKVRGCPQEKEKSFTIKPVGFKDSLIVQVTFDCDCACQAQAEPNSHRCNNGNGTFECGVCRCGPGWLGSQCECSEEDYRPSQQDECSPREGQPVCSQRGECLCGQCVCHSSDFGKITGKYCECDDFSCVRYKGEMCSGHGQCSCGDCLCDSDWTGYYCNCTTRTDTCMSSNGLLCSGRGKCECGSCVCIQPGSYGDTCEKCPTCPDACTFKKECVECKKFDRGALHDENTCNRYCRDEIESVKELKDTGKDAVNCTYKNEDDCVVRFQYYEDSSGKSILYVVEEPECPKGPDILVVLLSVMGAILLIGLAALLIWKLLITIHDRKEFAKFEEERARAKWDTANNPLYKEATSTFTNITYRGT
Integrin alpha-IIb/beta-3, sequence (P08514 32-887 limits assumed): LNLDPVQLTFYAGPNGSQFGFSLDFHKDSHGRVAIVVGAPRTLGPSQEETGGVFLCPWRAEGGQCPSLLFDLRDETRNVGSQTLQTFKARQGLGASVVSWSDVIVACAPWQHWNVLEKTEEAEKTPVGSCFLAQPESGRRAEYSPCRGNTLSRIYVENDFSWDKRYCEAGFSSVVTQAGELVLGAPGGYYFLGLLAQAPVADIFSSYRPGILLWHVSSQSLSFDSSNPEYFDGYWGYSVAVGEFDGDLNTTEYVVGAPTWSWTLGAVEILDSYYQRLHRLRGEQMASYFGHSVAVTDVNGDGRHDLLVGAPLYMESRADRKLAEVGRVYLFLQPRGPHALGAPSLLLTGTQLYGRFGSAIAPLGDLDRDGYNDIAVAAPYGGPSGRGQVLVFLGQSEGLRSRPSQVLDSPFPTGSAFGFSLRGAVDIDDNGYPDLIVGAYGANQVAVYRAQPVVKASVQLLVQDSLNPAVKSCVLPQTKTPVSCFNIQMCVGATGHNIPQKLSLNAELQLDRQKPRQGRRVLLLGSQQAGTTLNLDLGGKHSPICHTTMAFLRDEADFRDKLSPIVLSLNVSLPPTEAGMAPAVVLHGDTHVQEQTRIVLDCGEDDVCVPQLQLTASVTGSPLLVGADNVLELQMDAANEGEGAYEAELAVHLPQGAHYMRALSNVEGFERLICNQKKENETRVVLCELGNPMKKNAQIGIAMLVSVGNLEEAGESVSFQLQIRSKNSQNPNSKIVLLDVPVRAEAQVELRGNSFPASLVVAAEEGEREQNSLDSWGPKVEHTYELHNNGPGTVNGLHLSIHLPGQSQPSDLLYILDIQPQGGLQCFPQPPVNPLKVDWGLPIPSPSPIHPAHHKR
Integrin alpha-IIb/beta-3, sequence (P08514 891-1039 limits assumed): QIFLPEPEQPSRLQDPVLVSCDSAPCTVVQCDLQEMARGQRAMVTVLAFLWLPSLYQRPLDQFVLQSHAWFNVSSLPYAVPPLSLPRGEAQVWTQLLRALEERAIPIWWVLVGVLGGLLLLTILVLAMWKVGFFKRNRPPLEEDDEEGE
Integrin alpha-V/beta-3, sequence (P05106 27-788 limits assumed): as the sequence (P05106 27-788 limits assumed) above
Integrin alpha-V/beta-3, sequence (P06756 31-889 limits assumed): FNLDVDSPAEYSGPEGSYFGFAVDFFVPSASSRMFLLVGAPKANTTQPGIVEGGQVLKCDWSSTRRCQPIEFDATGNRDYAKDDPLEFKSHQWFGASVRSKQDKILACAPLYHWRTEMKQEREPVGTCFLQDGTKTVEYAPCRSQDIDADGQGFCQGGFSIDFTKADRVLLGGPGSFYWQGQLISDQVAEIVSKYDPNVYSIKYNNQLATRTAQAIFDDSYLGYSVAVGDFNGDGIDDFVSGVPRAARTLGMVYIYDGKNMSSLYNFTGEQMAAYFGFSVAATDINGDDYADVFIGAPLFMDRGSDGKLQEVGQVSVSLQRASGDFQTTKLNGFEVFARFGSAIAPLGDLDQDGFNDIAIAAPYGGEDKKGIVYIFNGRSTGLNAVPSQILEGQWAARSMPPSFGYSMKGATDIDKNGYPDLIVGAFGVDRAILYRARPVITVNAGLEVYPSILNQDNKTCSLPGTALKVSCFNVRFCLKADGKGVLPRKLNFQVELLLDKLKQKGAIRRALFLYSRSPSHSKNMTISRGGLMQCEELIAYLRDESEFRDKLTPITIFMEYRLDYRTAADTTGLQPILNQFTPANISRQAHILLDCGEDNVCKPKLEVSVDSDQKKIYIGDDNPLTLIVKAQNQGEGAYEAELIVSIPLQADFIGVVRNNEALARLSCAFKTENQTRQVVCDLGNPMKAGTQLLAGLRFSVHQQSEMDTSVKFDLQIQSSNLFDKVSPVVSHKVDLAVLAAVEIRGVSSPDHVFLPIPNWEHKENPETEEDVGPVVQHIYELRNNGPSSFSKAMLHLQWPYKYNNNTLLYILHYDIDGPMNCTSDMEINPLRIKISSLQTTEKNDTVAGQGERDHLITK
Integrin alpha-V/beta-3, sequence (P06756 891-1048 limits assumed): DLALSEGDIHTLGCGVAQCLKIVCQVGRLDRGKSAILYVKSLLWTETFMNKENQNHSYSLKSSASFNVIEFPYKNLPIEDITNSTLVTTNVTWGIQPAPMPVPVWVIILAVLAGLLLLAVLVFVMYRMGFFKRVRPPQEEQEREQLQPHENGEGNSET

By IC50 is commonly meant the concentration at which inhibition is half-maximal. Lower therefore signals greater potency. Regarding `N=C(N)NCCC[C@@H]1NC(=O)N(CC(=O)NCC(/N=C(\S)NCc2ccccc2)C(=O)O)C1=O` (some centres not stated), the IC50 was determined as 3000 nM at Integrin alpha-V/beta-3 and 10000 nM in assay [1].

Turning to `N=C(N)NCCC[C@@H]1NC(=O)N(CC(=O)NCC(NC(=O)NCc2ccccc2)C(=O)O)C1=O` (some centres not stated), the IC50 is 570 nM at Integrin alpha-V/beta-3 and 180 nM in assay [1]. For the compound `N=C(N)NC[C@@H]1NC(=O)N(CC(=O)NCC(NC(=O)OCc2ccccc2)C(=O)O)C1=O` (some centres not stated), the IC50 worked out at 15000 nM at Integrin alpha-V/beta-3 and 10000 nM in assay [1].

With `CCCCS(=O)(=O)NC(CNC(=O)CN1C(=O)N[C@@H](CCCN=C(N)N)C1=O)C(=O)O` (some centres not stated), the IC50 at Integrin alpha-V/beta-3 came to 760 nM; in assay [1] it was 350 nM. The corresponding values for `N=C(N)NCCC[C@@H]1NC(=O)N(CC(=O)NCC(NC(=O)OCc2ccccc2)C(=O)O)C1=O` (some centres not stated) are 80 nM and 2400 nM. Regarding `N=C(N)NCCC[C@@H]1NC(=O)N(CC(=O)NCC(NC(=O)CCc2ccccc2)C(=O)O)C1=O` (some centres not stated), the IC50 was 350 nM on Integrin alpha-V/beta-3 and 550 nM in assay [1]. The corresponding values for `N=C(N)NCC[C@@H]1NC(=O)N(CC(=O)NCC(NC(=O)OCc2ccccc2)C(=O)O)C1=O` (some centres not stated) are 5000 nM and 10000 nM. For `N=C(N)NCCCC[C@@H]1NC(=O)N(CC(=O)NCC(NC(=O)OCc2ccccc2)C(=O)O)C1=O` (some centres not stated), the IC50 on Integrin alpha-V/beta-3 was determined as 200 nM; in assay [1] it was 850 nM. In the case of `O=C(CN1C(=O)N[C@@H](CCCNC2=NCCN2)C1=O)NCC(NC(=O)OCc1ccccc1)C(=O)O` (some centres not stated), the figures for the IC50 (at Integrin alpha-V/beta-3; in assay [1]) were 20 nM and above 10000 nM, respectively. Taken in the same sequence, the figures for `O=C(CN1C(=O)N[C@@H](CCCNc2ncccn2)C1=O)NCC(NC(=O)OCc1ccccc1)C(=O)O` (some centres not stated) were 1660 nM and above 10000 nM. Regarding `O=C(CN1C(=O)N[C@@H](CC(=O)NNC2=NCCN2)C1=O)NCC(NC(=O)OCc1ccccc1)C(=O)O` (some centres not stated), the IC50 at Integrin alpha-V/beta-3 is 580 nM; in assay [1], above 10000 nM. As to `O=C(C[C@@H]1NC(=O)N(CC(=O)NCC(NC(=O)OCc2ccccc2)C(=O)O)C1=O)NCc1nc2ccccc2[nH]1` (some centres not stated), the IC50 at Integrin alpha-V/beta-3 came out at 15000 nM.

In the case of `O=C(CN1C(=O)N[C@@H](CCCNc2nc3ccccc3[nH]2)C1=O)NCC(NC(=O)OCc1ccccc1)C(=O)O` (some centres not stated), the figures for the IC50 (at Integrin alpha-V/beta-3; in assay [1]) were 40 nM and above 10000 nM, respectively. Taken in the same sequence, the figures for `N=C(N)NCCC[C@@H]1NC(=O)N(CC(=O)NCC(NC(=O)c2ccc3ccccc3c2)C(=O)O)C1=O` (some centres not stated) were 200 nM and 200 nM.
